# From publication PMC12295086, “CtGH76, a Glycoside Hydrolase 76 from Chaetomium thermophilum, with Elongated Glycan-Binding Canyon” (International Journal of Molecular Sciences, 2025)
# Molecular target: T1, CtGH76 (Thermochaetoides thermophila, UniProt G0S5Y9)
# T1 construct: gene CTHT_0025410; M1-M50 omitted (precursor 439 aa, predicted signal peptide M1-V60); N-terminal His10-tag removed with TEV; pET28a, E. coli SHuffle T7 Express; one molecule per asymmetric unit
# Experiment: X-ray crystal structure, crystal soaking
# Type: binding
# Conditions: soaked with mannose; subsites −4, −2 and +3
# T1 sequence (G0S5Y9 entry or part of it): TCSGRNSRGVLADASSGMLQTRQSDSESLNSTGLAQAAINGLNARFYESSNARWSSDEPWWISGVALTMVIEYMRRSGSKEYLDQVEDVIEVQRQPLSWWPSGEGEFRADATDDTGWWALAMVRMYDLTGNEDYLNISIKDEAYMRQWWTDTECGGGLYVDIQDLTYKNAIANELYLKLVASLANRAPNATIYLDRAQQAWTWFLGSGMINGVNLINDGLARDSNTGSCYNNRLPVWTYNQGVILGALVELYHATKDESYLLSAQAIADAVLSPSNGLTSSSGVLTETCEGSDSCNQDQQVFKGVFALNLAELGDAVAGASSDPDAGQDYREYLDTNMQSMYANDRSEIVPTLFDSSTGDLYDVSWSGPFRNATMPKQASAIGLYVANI
smiles,measurement,value
OC[C@H]1OC(O)[C@@H](O)[C@@H](O)[C@@H]1O (stereo partly shown) [mannose],"X-ray crystal structure, crystal soaking",Soaking with mannose in CtGH76 identified potential sugar-binding subsites analogous to CtDfg5
